Test results taken from patent US8158621B2, “Methods of treating or preventing autoimmune diseases with 2,4-pyrimidinediamine compounds” (Rigel Pharmaceuticals, Inc., priority 2002, dated 2012).

Each molecule was assayed on Human Jurkat T-cells (clone N) (assay: Jurkat T-cell activation (anti-TCR, CD69 upregulation)). Details: not given.
Assay type: cell-based
In short: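 Readout is CD69 upregulation by flow cytometry (anti-CD69-APC, 20 min at 4 °C) after 20 h anti-TCR (C305, 500 ng/ml) stimulation at 37 °C.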

Compound	IC50 [µM]
CNC(=O)COc1cccc(Nc2ncc(F)c(Nc3ccc(OC)c(C(F)(F)F)c3)n2)c1 [Compound R926835]	3.58
Fc1cnc(Nc2ccc3cn[nH]c3c2)nc1Nc1ccc2c(c1)OCCO2 [Compound R935190]	3.47
CC(C)(CO)c1ccc(Nc2ncc(F)c(Nc3ccc4oc(CO)cc4c3)n2)cc1 [Compound R935177]	4.15
CNC(=O)COc1cccc(Nc2ncc(F)c(Nc3ccc(C(C)(C)C)cc3)n2)c1 [Compound R926714]	5.63
CC(C)(C)c1ccc(Nc2nc(Nc3cccc(OCC(=O)O)c3)ncc2F)cc1 [Compound R926726]	> 10
Oc1cccc(Nc2ncc(F)c(Nc3ccc(OCc4nc(-c5ccccc5)no4)cc3)n2)c1 [Compound R935138]	0.46
CNC(=O)COc1cccc(Nc2ncc(F)c(Nc3ccc4c(c3)OC(F)(F)C(F)(F)O4)n2)c1 [Compound R926732]	5.26
Oc1cccc(Nc2nc(Nc3ccc4oc(CN5CCNCC5)cc4c3)ncc2F)c1 [Compound R926769]	2.79
O=[N+]([O-])c1ccc(NCCO)c(Nc2ncc(F)c(Nc3cc([N+](=O)[O-])ccc3NCCO)n2)c1 [Compound R950150]	> 10
O=C1Nc2cc(Nc3nc(Cl)ncc3F)ccc2OC1(F)F [Compound R940342]	5.12
O=C(CNc1cccc(Nc2ncc(F)c(Nc3cccc(O)c3)n2)c1)N1CCOCC1 [Compound R950221]	20.3
CSc1nc(Nc2ccc3c(c2)OCCO3)nc(Nc2ccc3c(c2)OCCO3)c1Cl [Compound R926475]	> 10
CSc1nc2ccc(Nc3ncc(F)c(Nc4ccc5c(c4)OCCO5)n3)cc2s1 [Compound R950201]	4.5
O=C(c1cc2cc(Nc3ncc(F)c(Nc4cccc(O)c4)n3)ccc2o1)N1CCOCC1 [Compound R926488]	2.43
CNC(=O)COc1cccc(Nc2ncc(F)c(Nc3ccc(OCCC(=O)O)cc3)n2)c1 [Compound R950344]	> 10
CNC(=O)COc1cccc(Nc2ncc(F)c(Nc3ccc4c(c3)C(OC(C)=O)CCO4)n2)c1 (stereo not shown) [Compound R950382]	1.55
CNC(=O)COc1cccc(Nc2ncc(F)c(Nc3cccc(N(CCO)CCO)c3)n2)c1 [Compound R950266]	3.66
O=C(COc1cccc(Nc2ncc(F)c(Nc3cc(Cl)c(O)c(Cl)c3)n2)c1)N1CCOCC1 [Compound R950187]	22.3
Cc1cc(Nc2nc(Nc3cccc(OCC(=O)N4CCNCC4)c3)ncc2F)cc(Cl)c1O [Compound R945149]	1.23
CNC(=O)COc1cccc(Nc2ncc(F)c(Nc3cccc(OC)c3)n2)c1 [Compound R926738]	2.22
CC(C)(C)c1cccc(Nc2nc(Nc3cccc(OCCO)c3)ncc2F)c1 [Compound R940282]	6.71
CCOC(=O)CNC(=O)Nc1c(Nc2ccc(OCC(=O)OCC)cc2)nc(Nc2ccc(OCC(=O)OCC)cc2)nc1C(=O)OCC [Compound R926587]	> 10
CC1(C)CN(c2ccccn2)c2cc(Nc3nc(Cl)ncc3F)ccc2O1 [Compound R940336]	> 10
COC(=O)COc1ccc(Nc2ncc(F)c(Nc3ccc(OCC(=O)OC(C)(C)C)cc3)n2)cc1 [Compound R926572]	> 10
CC(C)Oc1ccc(Nc2nc(Nc3ccc4oc(C(=O)N5CCCC5)cc4c3)ncc2F)cc1 [Compound R926703]	7.87
CNC(=O)COc1cccc(Nc2ncc(F)c(Nc3cc(OC)cc(C(F)(F)F)c3)n2)c1 [Compound R926833]	11.8

Compound	IC50 [µM]
COC(=O)c1cc(COc2cccc(Nc3ncc(F)c(Nc4ccc5c(c4)OCCO5)n3)c2)co1 [Compound R935207]	> 10
N#CCOc1ccc(Nc2nc(Nc3cccc(O)c3)ncc2F)cc1 [Compound R945071]	0.631
CNC(=O)COc1cccc(Nc2ncc(F)c(Nc3cc(OC)cc(OC)c3)n2)c1 [Compound R926796]	4.21
COC(=O)COc1cccc(Nc2ncc(F)c(Nc3cc(C)c(OC)c(C)c3)n2)c1 [Compound R945153]	9.74
Oc1cccc(Nc2ncc(F)c(Nc3ccc4[nH]ncc4c3)n2)c1 [Compound R935268]	2.91
O=C(NCCNCc1ccccc1)c1cc2cc(Nc3ncc(F)c(Nc4ccc5oc(C(=O)NCCNCc6ccccc6)cc5c4)n3)ccc2o1 [Compound R950169]	> 10
CC1(C)COC(COc2ccc(Nc3ncc(F)c(Nc4cccc(O)c4)n3)cc2)=N1 [Compound R926702]	18.6
Oc1cccc(Nc2nc(Nc3ccc(OCc4nnn[nH]4)cc3)ncc2C(F)(F)F)c1 [Compound R920846]	10.4
CON=C(N)COc1ccc(Nc2nc(Nc3ccc4c(c3)OCCO4)ncc2F)cc1 [Compound R945175]	3.79
CNC(=O)Cn1ncc2cc(Nc3ncc(F)c(Nc4ccc(OC(C)C)cc4)n3)ccc21 [Compound R935239]	1.73
O=C(COc1ccc(Nc2ncc(F)c(Nc3ccc(OCC(=O)N4CCCC4)cc3)n2)cc1)N1CCCC1 [Compound R926563]	> 10
Cc1ccc(-c2ccccc2)cc1Nc1ncc(F)c(Nc2cc(-c3ccccc3)ccc2C)n1 [Compound R926402]	> 10
N#CCOc1ccc(Nc2ncc(F)c(Nc3ccc(OCC#N)cc3)n2)cc1 [Compound R945032]	15.2
CCOC(=O)C(C)(C)c1ccc(Nc2nc(Nc3ccc4c(c3)OCCO4)ncc2F)cc1 [Compound R935148]	> 10
CC(C)Oc1ccc(Nc2nc(Nc3ccc4cnn(CCCO)c4c3)ncc2F)cc1 [Compound R935290]	3.43
OB(O)c1cccc(Nc2ncc(F)c(Nc3ccc4c(c3)OCCO4)n2)c1 [Compound R926837]	> 10
O=C(COc1cccc(Nc2ncc(F)c(Nc3ccc4c(c3)NCCO4)n2)c1)NCCCO [Compound R909252]	0.655
N#CCOc1ccc(Nc2ncc(F)c(Nc3cccc(O)c3)n2)cc1 [Compound R945070]	> 10
COC(=O)c1ccc(Cn2cc3ccc(Nc4ncc(F)c(Nc5ccc(OC(C)C)cc5)n4)cc3n2)c(OC)c1 [Compound R935338]	5.89
OCCn1ncc2ccc(Nc3ncc(F)c(Nc4ccc5cnn(CCO)c5c4)n3)cc21 [Compound R935238]	6.73
CCOC(=O)C(C)Oc1ccc(Nc2ncc(C)c(Nc3ccc(OC(C)C(=O)OCC)cc3)n2)cc1 (racemic) [Compound R926259]	13
COc1cc(C(=O)NS(=O)(=O)c2ccccc2C)ccc1Cn1ncc2cc(Nc3ncc(F)c(Nc4cccc(O)c4)n3)ccc21 [Compound R935340]	> 10
CNC(=O)COc1ccc(Nc2ncc(F)c(Nc3ccc4c(c3)OCCO4)n2)cc1 [Compound R909240]	2.85
CNC(=O)COc1cccc(Nc2ncc(F)c(Nc3cnc4c(c3)OC(C)(C)C(=O)N4)n2)c1 [Compound R940345]	5.4
Fc1cnc(Nc2ccc(OCc3nc(-c4ccccc4)no3)cc2)nc1Nc1ccc2c(c1)OCCO2 [Compound R935136]	> 10

Same assay, conditions: Homo sapiens

Compound	IC50 [µM]
Nc1cc(Nc2ncc(F)c(Nc3ccc([N+](=O)[O-])c(N)c3)n2)ccc1[N+](=O)[O-] [Compound R950135]	> 10

Same assay, conditions: Homo sapiens, Jurkat

Compound	IC50 [µM]
Cc1cc(Nc2ncc(F)c(Nc3ccc4c(c3)OCCO4)n2)c(C)cc1O [Compound R926792]	9.97
O=C(O)c1cc(Nc2ncc(F)c(Nc3ccc(O)c(C(=O)O)c3)n2)ccc1O [Compound R945041]	> 10
Oc1cccc(Nc2ncc(F)c(Nc3ccc4c(c3)C=CCC4)n2)c1 [Compound R926943]	18.5
CNC(=O)c1cc2cc(Nc3ncc(F)c(Nc4cccc(C(C)(C)C)c4)n3)ccc2o1 [Compound R940291]	9.45
CC(C)(C)OC(=O)Nc1cccc(Nc2ncc(F)c(Nc3cccc(NC(=O)OC(C)(C)C)c3)n2)c1 [Compound R950108]	> 10
Fc1cnc(Nc2ccc(C(F)(F)F)cc2)nc1Nc1ccc(C(F)(F)F)cc1 [Compound R926016]	> 10
Cc1c(O)ccc(Nc2ncc(F)c(Nc3ccc(O)c(C)c3C)n2)c1C [Compound R940217]	> 10
COC(=O)c1cc(N)cc(Nc2ccnc(Nc3cc(N)cc(C(=O)OC)c3)n2)c1 [Compound R950132]	4.64
CNC(=O)c1cc2cc(Nc3nc(Nc4ccc5c(c4)OCCO5)ncc3F)ccc2o1 [Compound R926491]	2.73
CCOC(=O)c1cccc(Nc2ncc(F)c(Nc3ccc4c(c3)OCCO4)n2)c1 [Compound R925745]	> 10
Fc1cnc(NCc2ccc3c(c2)CCO3)nc1Nc1ccc2c(c1)OCCO2 [Compound R950205]	24.5
Oc1cccc(Nc2ncc(F)c(Nc3ccc(Cl)nc3)n2)c1 [Compound R927018]	17.7
COc1ccc(Nc2ncc(Br)c(Nc3ccc(OC)c(-c4ccccc4)c3)n2)cc1-c1ccccc1 [Compound R925802]	> 10
Cc1cc(CNc2ncc(F)c(Nc3cccc(O)c3)n2)c(C)o1 [Compound R945162]	> 10
COc1ccc(C)c(Nc2ncc(F)c(Nc3ccc4c(c3)OCCO4)n2)c1 [Compound R926896]	> 10
CCOC(=O)c1nc(Nc2cccc(O)c2)nc(Nc2cccc(O)c2)c1[N+](=O)[O-] [Compound R925849]	8.02
COc1ccc(Nc2ccnc(Nc3ccc(OC)c(-c4ccccc4)c3)n2)cc1-c1ccccc1 [Compound R925806]	> 10
N#Cc1cccc(Nc2nc(Nc3cccc(O)c3)ncc2F)c1 [Compound R945109]	9.64
Oc1cccc(Nc2nc(Nc3ccc(-n4cnc(Cl)c4Cl)cc3)ncc2F)c1 [Compound R926777]	> 10
c1coc(-c2cnc(Nc3ccc4c(c3)OCCO4)nc2Nc2ccc3c(c2)OCCO3)c1 [Compound R925785]	3.12
O=C(O)c1cc2cc(Nc3ncc(F)c(Nc4ccc5c(c4)OCCO5)n3)ccc2o1 [Compound R926698]	> 10
Oc1cccc(Nc2ncc(F)c(Nc3ccc4ncccc4c3)n2)c1 [Compound R927019]	> 10
CN(C)c1cccc(Nc2ncc(F)c(Nc3cccc(N(C)C)c3)n2)c1 [Compound R950182]	> 10
Oc1cccc(Nc2nc(Nc3ccc4c(c3)CCO4)ncc2F)c1 [Compound R909250]	> 10
